Laboratory results reported in patent US10759799B2, “Indazole containing macrocycles and therapeutic uses thereof” (Samumed, LLC, priority 2018, dated 2020).
Like-named read-outs stand apart in the source and are kept apart here.

How the values were obtained:
[1] = biological target: recombinant DYRK1A kinase (Homo sapiens (Human), UniProt Q13627); assay: DYRK1A kinase assay (Ser/Thr 18 peptide Z-lyte, FRET); assay type: biochemical; conditions: 30 μM ATP, one hour at room temperature, read-out: EC50 (μM) (IC50 per method)
Description: Representative compounds were screened using the assay procedure for DYRK1A kinase activity as described below.
(§1) The DYRK1A kinase assay was run using the Ser/Thr 18 peptide Z-lyte assay kit according to manufacturer's instructions (Life Technologies—a Division of Thermo-Fisher). This is a non-radioactive assay using fluorescence resonance energy transfer (FRET) between coumarin and fluorescein to detect kinase activity which is represented as a ratio of coumarin emission/fluorescein emission.
Briefly, recombinant DYRK1A kinase, ATP and Ser/Thr peptide 18 were prepared in 1× Kinase buffer to final concentrations of 0.19 μg/mL, 30 μM, and 4 μM respectively. The mixture was allowed to incubate with the representative compounds for one hour at room temperature. All reactions were performed in duplicate. Unphosphorylated (“0% Control”) and phosphorylated (“100% control”) forms of Ser/Thr 18 served as control reactions. Additionally, an 11-point dose-response curve of Staurosporine (1 uM top) was run to serve as a positive compound control.
After incubation, Development Reagent A was diluted in Development Buffer then added to the reaction and allowed to further incubate for one hour at room temperature. The plate was read at Ex 400 Em 455 to detect the coumarin signal and Ex 400 Em 520 to measure the signal (EnVision Multilabel Plate Reader, PerkinElmer).
The Emission ratio (Em) was calculated as a ratio of the coumarin (C) emission signal (at 445 nm)/Fluorescein (F) emission signal (at 520 nm). The percent phosphorylation was then calculated using the following formula: [1−((Em ratio×F100%)−C100%)/((C0%−C100%)+(Em ratio×(F100%−F0%)))].

[2] = test system: primary human mesenchymal stem cells (hMSCs); assay: Chondrogenesis induction in hMSCs (Rhodamine B staining intensity, EC50); assay type: cell-based; conditions: 6 days, Rhodamine B staining intensity of nodules
Description: Representative compounds were screened using primary human mesenchymal stem cells (hMSCs) to determine their ability to induce chondrogenesis (process by which cartilage is developed).
Primary human mesenchymal stem cells (hMSCs) were purchased from Lonza (Walkersville, Md.) and expanded in Mesenchymal Stem Cell Growth Media (Lonza). Cells between passage 2 and 4 were used for the experiments.
To image chondrogenic nodules, the cells were fixed using 4% formaldehyde (Electron Microscopy Sciences), and stained with 2 μg/mL Rhodamine B (Sigma-Aldrich) and 20 μM Nile Red (Sigma-Aldrich) [Johnson K., et. al, A Stem Cell-Based Approach to Cartilage Repair, Science, (2012), 336(6082). […] Rhodamine B staining intensity of nodules in each well was normalized to the average of 3 DMSO treated wells on the same plate using Excel (Microsoft Inc.). The normalized averages (fold change over DMSO) of 3 replicate wells for each compound concentration were calculated. EC50 values were calculated using non-linear regression curve fitting in Prism 8 (Graphpad Inc.). Due to solubility limitations of some of the compounds, curve fitting was incomplete, and the highest observed activity was extrapolated to the insoluble doses for accurate EC50 determinations.
EC50 values are reported. Further, using TGF-β3 as a positive control, the concentration of representative compounds required to induce equivalent levels of chondrogenesis is reported. In addition, the maximum activity of each compound and the respective dose that each compound reached maximum chondrogenesis activity is reported.

[3] = test system: SW480 colon carcinoma cells; assay: Cell viability assay (CellTiter-Glo) in SW480 cells; assay type: cell-based; conditions: Homo sapiens; for EC50: 96 h, SW480 cell viability, four days, CellTiter-Glo
Experimental: Representative compounds were screened using the assay procedure to assess the effect on cell viability as described below.
SW480 colon carcinoma cells were transduced with a lentiviral vector expressing luciferase with a human Sp5 promoter consisting of a sequence of eight TCF/LEF binding sites. SW480 cells stably expressing the Sp5-Luc reporter gene and a hygromycin resistance gene were selected by treatment with 150 μg/mL of hygromycin for 7 days. These stably transduced SW480 cells were expanded in cell culture and used for all further screening activities.
For the Cell Viability Assays, the cells were plated at 2,000 cells/well in 384-well plates with a DMEM medium containing 1% fetal bovine serum, and 1% Penicillin-Streptomycin and incubated for […] at 37° C. and 5% CO2. Eight replicates of DMSO-treated cells served as controls and cells treated with compound were performed in duplicate.
After incubation, 10 μL of CellTiter-Glo (Promega) was added to each well allowed to incubate for approximately 12 minutes. This reagent “results in cell lysis and generation of a luminescent signal proportional to the amount of ATP present. The amount of ATP is directly proportional to the number of cells present in culture, in agreement with previous reports. The CellTiter-Glo Assay generates a “glow-type” luminescent signal, produced by the luciferase reaction (Promega.com)”.

recombinant GSK3β kinase = recombinant GSK3β kinase (Homo sapiens (Human), UniProt P49841); assay: GSK3β kinase assay (Ser/Thr 09 peptide Z-lyte, FRET); assay type: biochemical; conditions: 46 μM ATP, one hour at room temperature, read-out: EC50 (μM) (IC50 per method)
Description: Representative compounds were screened using the assay procedure for GSK3β kinase activity as described below.
as §1, with “GSK3β” for “DYRK1A”, “is” for “was”, “09” for “18”, “as” for “as a”
Briefly, recombinant GSK3β kinase, ATP and Ser/Thr peptide 09 are prepared in 1× Kinase buffer to final concentrations of 0.04 μg/mL, 46 μM, and 4 μM respectively. The mixture is allowed to incubate with the representative compounds for one hour at room temperature. All reactions were performed in duplicate. Unphosphorylated (“0% Control”) and phosphorylated (“100% control”) forms of […] serve as control reactions.
After incubation, diluted Development Buffer is added to the reaction and allowed to further incubate for one hour at room temperature. The plate is read at Ex 400 Em 455 to detect the coumarin signal and Ex 400 Em 520 to measure the signal (EnVision Multilabel Plate Reader, PerkinElmer).
The Emission ratio (Em) is calculated as a ratio of the coumarin (C) emission signal (at 445 nm)/Fluorescein (F) emission signal (at 520 nm). The percent phosphorylation is then calculated using the following formula: [1−((Em ratio×F100%)−C100%)/((C0%−C100%)+(Em ratio×(F100%−F0%)))].
Dose-response curves are generated and inhibitory concentration (IC50) values are calculated using non-linear regression curve fit in the Dotmatics' Studies Software (Bishops Stortford, UK).

[4] = test system: Wnt activity (Sp5-Luc reporter, SW480 colon carcinoma cells); assay: Sp5-Luc reporter gene screening assay for Wnt activity in SW480 cells; assay type: cell-based; conditions: Homo sapiens; Sp5-Luc reporter, SW480 cells, 36 to 48 hours
Description: The screening assay for Wnt activity is described as follows. Reporter cell lines can be generated by stably transducing cancer cell lines (e.g., colon cancer) or primary cells (e.g., IEC-6 intestinal cells) with a lentiviral construct that includes a Wnt-responsive promoter driving expression of the firefly luciferase gene.
SW480 colon carcinoma cells were transduced with a lentiviral vector expressing luciferase with a human Sp5 promoter consisting of a sequence of eight TCF/LEF binding sites. SW480 cells stably expressing the Sp5-Luc reporter gene and a hygromycin resistance gene were selected by treatment with 150 μg/mL of hygromycin for 7 days. These stably transduced SW480 cells were expanded in cell culture and used for all further screening activities. […] For Sp5-Luc reporter gene assays, the cells were plated at 4,000 cells/well in 384-well plates with a DMEM medium containing 1% fetal bovine serum, and 1% Penicillin-Streptomycin and incubated for 36 to 48 hours at 37° C. and 5% CO2. Following incubation, 15 μl of BriteLite Plus luminescence reagent (Perkin Elmer) was added to each well of the 384-well assay plates. The plates were placed on an orbital shaker for 2 min and then luminescence was quantified using the Envision (Perkin Elmer) plate reader. Readings were normalized to DMSO only treated cells, and normalized activities were utilized for EC50 calculations using the dose-response log (inhibitor) vs. response-variable slope (four parameters) nonlinear regression feature available in GraphPad Prism 5.0 (or Dotmatics).

[5] = test system: primary human fibroblasts derived from IPF patients (LL29 cells); assay: Inhibition of TGF-β1 induced fibrosis (αSMA staining) in LL29 fibroblasts; assay type: cell-based; conditions: Fibroblast, 96 h, LL29 cells, TGF-β1 20 ng/mL, 4 days, % αSMA positive cells
Experimental: Representative compounds were screened using primary human fibroblasts (derived from IPF patients) treated with TGF-β1 to determine their ability to inhibit the fibrotic process.
LL29 cells were plated at 1,500 cells/well in 70 μL/well F12 medium supplemented with 1% Fetal Bovine Serum. […] Wells treated with TGF-β1 and containing DMSO were used as positive control, and cells with only DMSO were negative control. […] Following incubation for 4 days, SYTOX green nucleic acid stain (Life Technologies [Thermo Fisher Scientific]) was added to the wells at a final concentration of 1 μM and incubated at room temperature for 30 min.

[6] = DMF

Sequence of recombinant GSK3β kinase (P49841 whole entry): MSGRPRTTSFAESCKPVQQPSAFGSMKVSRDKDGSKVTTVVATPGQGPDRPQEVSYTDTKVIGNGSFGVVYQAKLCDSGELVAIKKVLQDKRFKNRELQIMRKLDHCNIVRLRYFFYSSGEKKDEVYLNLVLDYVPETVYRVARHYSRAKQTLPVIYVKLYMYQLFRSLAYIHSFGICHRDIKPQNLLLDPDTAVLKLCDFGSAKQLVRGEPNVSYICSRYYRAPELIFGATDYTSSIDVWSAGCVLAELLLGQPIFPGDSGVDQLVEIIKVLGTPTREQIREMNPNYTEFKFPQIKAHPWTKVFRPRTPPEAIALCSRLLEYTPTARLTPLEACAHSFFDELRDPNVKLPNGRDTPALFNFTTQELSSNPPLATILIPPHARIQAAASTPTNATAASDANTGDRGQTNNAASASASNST

| IC50 [1] [µM] | EC50 [2] [nM] | EC50 [3] [nM] | IC50 (recombinant GSK3β kinase) [µM] | EC50 [4] [nM] | Compound | further results |
| --- | --- | --- | --- | --- | --- | --- |
| 0.204 | 69 | > 10000 | 0.494 | 7660 | O=C1CCc2cccc(c2)-c2ccnc3[nH]c(nc23)-c2n[nH]c3ccc(cc23)-c2cncc(c2)N1 [Compound 4, (Z)-2^3H,3^1H-5-aza-2(7,2)-imidazo[4,5-b]pyridina-3 (3,5)-indazola-4(3,5)-pyridina-1(1,3)-benzenacyclooctaphan-6-one] | inhibition at 10 µM ([3]; SW480, read-out: percent inhibition at 10 μM): 49.5% |
| 0.014 | 3120 | 35 | 0.014 | 17 | O=C1CCCc2cccc(c2)-c2cccc3[nH]c(nc23)-c2n[nH]c3ccc(cc23)-c2cncc(c2)N1 [Compound 71] | EC50 [5]: 21 nM |
| – | – | – | – | – | c1ccc(C(c2ccccc2)(c2ccccc2)n2nc3c4cc(ccc42)-c2cncc(c2)OCCCc2cccc(c2)-c2cccc4[nH]c-3nc24)cc1 | ring closure, isolated yield ([6]; from Oc1cncc(-c2ccc3c(c2)c(-c2nc4c(-c5cccc(CCCBr)c5)cccc4[nH]2)nn3C(c2ccccc2)(c2ccccc2)c2ccccc2)c1, ether bond, 18-membered ring, K2CO3, 20.0 mM, 80.0 °C): 50.8% |
| – | – | – | – | – | (Z)-5,10-Dimethyl-1^1H,2^1H-5,10-diaza-1(2,4)-imidazo[4,5-c]pyridina-2(3,5)-indazola-3(3,5)-pyridinacyclodecaphane | ring closure, isolated yield ([6]; amine bond, 18-membered ring, KI/DIEA, 42.4 mM, 90.0 °C): 9.7% |
| – | – | – | – | – | O=C1CCc2cccc(c2)-c2cccc3[nH]c(nc23)-c2nn(C(c3ccccc3)(c3ccccc3)c3ccccc3)c3ccc(cc23)-c2cncc(c2)N1 | ring closure, isolated yield ([6]; from Nc1cncc(-c2ccc3c(c2)c(-c2nc4c(-c5cccc(CCC(=O)O)c5)cccc4[nH]2)nn3C(c2ccccc2)(c2ccccc2)c2ccccc2)c1, amide bond, 18-membered ring, HATU/DIEA/DMAP, 17.5 mM, 70.0 °C): 49.2% |
| 0.096 | 9 | 54 | 0.062 | 34 | c1cc2cc(c1)-c1cccc3[nH]c(nc13)-c1n[nH]c3ccc(cc13)-c1cncc(n1)NCCO2 [Compound 109] | ring closure, isolated yield ([6]; from NCCOc1cccc(-c2cccc3[nH]c(-c4n[nH]c5ccc(-c6cncc(Cl)n6)cc45)nc23)c1, snar bond, 18-membered ring, DIEA, 19.0 mM, 110.0 °C): 26.4% |
| – | – | – | – | – | CN1CCCn2cc(nn2)-c2nccc3[nH]c(nc23)-c2n[nH]c3ccc(cc23)-c2cncc(c2)C1 | ring closure, isolated yield ([6]; from CNCc1cncc(-c2ccc3[nH]nc(-c4nc5c(-c6cn(CCCCl)nn6)nccc5[nH]4)c3c2)c1, amine bond, 19-membered ring, DIEA, 16.7 mM, 100.0 °C): 71.9% |
